Laboratory results published in US4607031A, “Novel ethyl benzylphosphinate derivatives, process for production thereof, and their use as calcium antagonist” (priority 1984, dated 1986).

Legend:
[1] = molecular target: T1, taenia preparation isolated from caecum (Cavia porcellus); test: Calcium antagonistic activity (isolated taenia preparation from caecum, Ca2+ concentration-response in K+-rich solution); assay type: cell-based; settings: guinea pig taenia caeci; Ca2+-free, K+-rich Ringer-Lock solution, 30±1° C.; CaCl2 cumulatively added; read-out: Calcium antagonistic activity (pA2 values, mean ± standard error) (converted)
T1 construct: The taenia preparation in a length of about 2 cm was isolated from caecum; from tissue; host or cells: guinea pig taenia caeci (isolated smooth muscle strip)
T1 sequence (O35505 whole entry): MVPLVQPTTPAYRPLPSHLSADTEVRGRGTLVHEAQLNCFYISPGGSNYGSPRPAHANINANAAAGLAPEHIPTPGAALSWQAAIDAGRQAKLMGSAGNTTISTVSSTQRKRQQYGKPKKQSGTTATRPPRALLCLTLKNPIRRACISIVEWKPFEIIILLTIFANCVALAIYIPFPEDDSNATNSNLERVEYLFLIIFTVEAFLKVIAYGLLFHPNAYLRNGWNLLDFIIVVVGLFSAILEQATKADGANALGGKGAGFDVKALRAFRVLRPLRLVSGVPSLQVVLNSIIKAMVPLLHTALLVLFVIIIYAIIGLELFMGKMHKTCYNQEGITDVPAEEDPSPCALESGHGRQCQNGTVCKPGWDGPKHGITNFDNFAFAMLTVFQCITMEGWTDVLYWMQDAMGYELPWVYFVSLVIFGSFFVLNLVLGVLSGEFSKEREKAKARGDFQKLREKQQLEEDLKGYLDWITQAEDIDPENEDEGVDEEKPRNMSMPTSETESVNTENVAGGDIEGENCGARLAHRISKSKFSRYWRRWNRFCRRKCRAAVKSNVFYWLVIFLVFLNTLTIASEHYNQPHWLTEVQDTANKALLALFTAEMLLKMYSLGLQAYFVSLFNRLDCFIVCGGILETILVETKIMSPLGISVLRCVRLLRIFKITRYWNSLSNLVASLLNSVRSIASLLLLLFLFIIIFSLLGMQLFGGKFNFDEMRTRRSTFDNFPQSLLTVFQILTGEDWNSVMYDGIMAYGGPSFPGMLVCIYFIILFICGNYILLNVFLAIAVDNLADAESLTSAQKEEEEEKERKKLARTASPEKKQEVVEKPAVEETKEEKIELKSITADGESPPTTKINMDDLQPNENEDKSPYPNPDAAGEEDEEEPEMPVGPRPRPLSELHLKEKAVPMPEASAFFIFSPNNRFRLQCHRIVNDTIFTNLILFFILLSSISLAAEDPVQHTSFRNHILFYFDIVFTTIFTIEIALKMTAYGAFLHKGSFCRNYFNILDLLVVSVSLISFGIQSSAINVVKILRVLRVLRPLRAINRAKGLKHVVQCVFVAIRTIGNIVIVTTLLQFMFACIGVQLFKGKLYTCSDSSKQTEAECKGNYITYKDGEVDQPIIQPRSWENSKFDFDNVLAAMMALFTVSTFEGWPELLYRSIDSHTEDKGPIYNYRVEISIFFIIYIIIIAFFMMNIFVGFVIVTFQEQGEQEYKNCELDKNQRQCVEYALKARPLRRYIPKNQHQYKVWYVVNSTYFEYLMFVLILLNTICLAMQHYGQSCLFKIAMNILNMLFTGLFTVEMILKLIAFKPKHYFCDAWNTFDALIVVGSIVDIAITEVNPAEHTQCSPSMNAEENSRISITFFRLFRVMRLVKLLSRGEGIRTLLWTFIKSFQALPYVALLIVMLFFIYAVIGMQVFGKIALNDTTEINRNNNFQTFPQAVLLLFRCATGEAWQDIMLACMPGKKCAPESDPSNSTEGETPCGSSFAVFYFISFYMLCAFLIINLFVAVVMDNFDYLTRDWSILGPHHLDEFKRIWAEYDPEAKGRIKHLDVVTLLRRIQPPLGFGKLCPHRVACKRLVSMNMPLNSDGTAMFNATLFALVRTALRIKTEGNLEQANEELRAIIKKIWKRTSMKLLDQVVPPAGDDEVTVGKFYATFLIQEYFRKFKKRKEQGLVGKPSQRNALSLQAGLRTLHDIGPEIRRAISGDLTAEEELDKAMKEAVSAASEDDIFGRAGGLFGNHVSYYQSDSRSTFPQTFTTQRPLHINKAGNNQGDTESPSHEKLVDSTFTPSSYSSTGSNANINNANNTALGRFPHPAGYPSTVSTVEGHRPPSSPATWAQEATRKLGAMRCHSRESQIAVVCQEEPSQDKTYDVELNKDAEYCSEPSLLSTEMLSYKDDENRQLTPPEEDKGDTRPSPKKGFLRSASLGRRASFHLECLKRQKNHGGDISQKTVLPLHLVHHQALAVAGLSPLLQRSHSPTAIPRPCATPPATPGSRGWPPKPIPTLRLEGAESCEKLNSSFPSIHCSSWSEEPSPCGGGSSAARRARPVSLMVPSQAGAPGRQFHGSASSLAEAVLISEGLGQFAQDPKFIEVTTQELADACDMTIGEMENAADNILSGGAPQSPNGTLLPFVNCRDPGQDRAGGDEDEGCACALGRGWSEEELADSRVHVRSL
Description: Male guinea pigs, weighing 405-500 g, were stunned and bled. The taenia preparation in a length of about 2 cm was isolated from caecum and suspended in an organ bath filled with Ca^2+ -free Ringer-Lock solution (composition, mM: NaCl 154, KCl 5.6, NaHCO3 2.3, glucose 5.5). The bathing solution was maintained at 30±1° C. and bubbled with air. The contractile response was recorded using an isotonic transducer (TD-112S made by Nihon Kohden Co., Ltd.) under a load of 0.5 g.
After sufficient incubation to remove Ca^2+, the bathing solution was replaced by Ca^2+ -free, K^+ -rich Ringer-Lock solution (composition, mM: NaCl 59.6, KCl 100, NaHCO3 2.3, glucose 5.5). An aqueous solution of CaCl2 ([…]) was cumulatively added to the bathing solution every 10 minutes, and a concentration-response curve for Ca^2+ was obtained. After washing out Ca^2+ the same procedure as above was carried out in the presence of each of the test compounds, and the pA2 value of the calcium antagonistic activity was calculated from the difference between the concentration-response curves obtained in the absence and presence of the test compound.
Each of the test compounds was dissolved in 5% ethanol and added to the bathing solution (the final concentration of ethanol was 0.05%).

Mongrel dogs = test: Coronary vasodilating activity and hypotensive activity in anesthetized dogs; assay type: in vivo, dog; settings: Canis lupus familiaris, iv; for ED15: read-out: Mean systemic blood pressure lowering activity MBP-DD15; for ED75: dose which increases coronary blood flow by 75%, anesthetized mongrel dogs, injected into femoral vein, 0.03 to 0.3 mg/kg, read-out: Coronary blood flow increasing activity CBF-ID75
Description: Coronary vasodilating activity was examined by measuring the amount of coronary blood flow as an index. Mongrel dogs weighing 10 to 19 kg were anesthetized by intravenously injecting sodium pentobarbital (30 mg/kg) and thoracotomized at the 5th left intercostal space under artificial ventilation. After incision of the pericardiac membrane, a flow probe was placed at the circumflex banch of the left coronary artery and led to an electromagnetic flow meter (MFV-2100 made by Nihon Kohden Co., Ltd.). The systemic blood pressure of the animals was measured by a pressure transducer (MPU-0.5 made by Nihon Kohden Co., Ltd.) connected to the cannulated left femoral artery. The coronary blood flow and the systemic blood pressure were recorded on a polygraph (RM-85 made by Nihon Kohden Co., Ltd.). Each of the test compounds was dissolved in ethanol/saline solution (1/1, V/V) and injected into the femoral vein.
Each of the test compounds was administered in a dose of 0.03 to 0.3 mg/kg, and doses which increase the coronary blood flow by 75% (CBF-ID75) and decrease the mean systemic blood pressure by 15% (MDP-DD15) were calculated from the regression lines.

Acute toxicity, oral = settings: mouse, in vivo, ddY male mice, suspended in 0.5% carboxymethyl cellulose, 7 days

Row | Compound | Kb [1] [nM] | ED15 (Mongrel dogs) [mg/kg] | ED75 (Mongrel dogs) [mg/kg] | LD50 at 168 h (Acute toxicity, oral) [mg/kg]
1 | CCOP(=O)(Cc1ccc(-c2nc3cc(F)ccc3s2)cc1)N1CCCCC1=O (centres unmarked) [Compound 104, Ethyl 4-(5-fluorobenzothiazol-2-yl)benzyl(2-oxopiperidino)phosphinate] | 20.9 | 0.0629 | 0.0647 | > 1000
2 | CCOP(=O)(Cc1ccc(-c2nc3ccccc3s2)cc1)N1CCCCCC1=O (centres unmarked) [Compound 102, Ethyl 4-(benzothiazol-2-yl)benzyl-(2-oxohomopiperidino)phosphinate] | 34.7 | 0.054 | 0.0573 | > 1000
3 | CCOP(=O)(Cc1ccc(-c2nc3cc(F)ccc3s2)cc1)N1CCCC1=O (centres unmarked) [Compound 103, Ethyl 4-(5-fluorobenzothiazol-2-yl)benzyl(2-oxopyrrolidino)phosphinate] | 18.6 | 0.0901 | 0.0644 | > 1000
4 | CCOP(=O)(Cc1ccc(-c2nc3ccccc3s2)cc1)N1CCCCC1=O (centres unmarked) [Compound 101, Ethyl 4-(benzothiazol-2-yl)benzyl-(2-oxopiperidino)phosphinate] | 35.5 | 0.0582 | 0.06 | > 1000
5 | CCOP(=O)(Cc1ccc(-c2nc3ccccc3s2)cc1)N1CCCC1=O (centres unmarked) [Compound 100, Ethyl 4-(benzothiazol-2-yl)benzyl-(2-oxopyrrolidino)phosphinate] | 29.5 | 0.0387 | 0.044 | > 1000
6 | CCOP(=O)(Cc1ccc(-c2nc3ccccc3s2)cc1)OCC [Compound A, diethyl 4-(benzothiazol-2-yl)benzylphosphonate, reference compound] | 61.7 | 0.158 | 0.116 | > 1000
7 | CCOP(=O)(Cc1ccc(-c2nc3cc(F)ccc3s2)cc1)N1CCOC1=O (centres unmarked) [Compound 109, Ethyl 4-(5-fluorobenzothiazol-2-yl)benzyl(2-oxo-1,3-oxazolidino)phosphinate] | 20.4 | 0.0748 | 0.0615 | > 1000
8 | CCOP(=O)(Cc1ccc(-c2nc3cc(F)ccc3s2)cc1)N1CCCCCC1=O (centres unmarked) [Compound 105, Ethyl 4-(5-fluorobenzothiazol-2-yl)benzyl(2-oxohomopiperidino)phosphinate] | 18.6 | 0.0712 | 0.0583 | > 1000
